Experimental data published in patent publication US9314485B2, “Use of PI3K M-TOR and AKT inhibitors to induce FOXP3 expression and generate regulatory T cells” (Medical Research Council, priority 2006, dated 2016).

Experiments:
p110β = p110β (Homo sapiens, UniProt P42338); details: unit inferred; read-out: Specificity for p110β (IC50 determined in vitro); cited from earlier work
PI3KC2β = PI3KC2β (Homo sapiens, UniProt O00750); details: unit inferred; read-out: Specificity for PI3KC2β (IC50 determined in vitro); cited from earlier work
Sequence of PI3KC2β (O00750 whole entry, species assumed): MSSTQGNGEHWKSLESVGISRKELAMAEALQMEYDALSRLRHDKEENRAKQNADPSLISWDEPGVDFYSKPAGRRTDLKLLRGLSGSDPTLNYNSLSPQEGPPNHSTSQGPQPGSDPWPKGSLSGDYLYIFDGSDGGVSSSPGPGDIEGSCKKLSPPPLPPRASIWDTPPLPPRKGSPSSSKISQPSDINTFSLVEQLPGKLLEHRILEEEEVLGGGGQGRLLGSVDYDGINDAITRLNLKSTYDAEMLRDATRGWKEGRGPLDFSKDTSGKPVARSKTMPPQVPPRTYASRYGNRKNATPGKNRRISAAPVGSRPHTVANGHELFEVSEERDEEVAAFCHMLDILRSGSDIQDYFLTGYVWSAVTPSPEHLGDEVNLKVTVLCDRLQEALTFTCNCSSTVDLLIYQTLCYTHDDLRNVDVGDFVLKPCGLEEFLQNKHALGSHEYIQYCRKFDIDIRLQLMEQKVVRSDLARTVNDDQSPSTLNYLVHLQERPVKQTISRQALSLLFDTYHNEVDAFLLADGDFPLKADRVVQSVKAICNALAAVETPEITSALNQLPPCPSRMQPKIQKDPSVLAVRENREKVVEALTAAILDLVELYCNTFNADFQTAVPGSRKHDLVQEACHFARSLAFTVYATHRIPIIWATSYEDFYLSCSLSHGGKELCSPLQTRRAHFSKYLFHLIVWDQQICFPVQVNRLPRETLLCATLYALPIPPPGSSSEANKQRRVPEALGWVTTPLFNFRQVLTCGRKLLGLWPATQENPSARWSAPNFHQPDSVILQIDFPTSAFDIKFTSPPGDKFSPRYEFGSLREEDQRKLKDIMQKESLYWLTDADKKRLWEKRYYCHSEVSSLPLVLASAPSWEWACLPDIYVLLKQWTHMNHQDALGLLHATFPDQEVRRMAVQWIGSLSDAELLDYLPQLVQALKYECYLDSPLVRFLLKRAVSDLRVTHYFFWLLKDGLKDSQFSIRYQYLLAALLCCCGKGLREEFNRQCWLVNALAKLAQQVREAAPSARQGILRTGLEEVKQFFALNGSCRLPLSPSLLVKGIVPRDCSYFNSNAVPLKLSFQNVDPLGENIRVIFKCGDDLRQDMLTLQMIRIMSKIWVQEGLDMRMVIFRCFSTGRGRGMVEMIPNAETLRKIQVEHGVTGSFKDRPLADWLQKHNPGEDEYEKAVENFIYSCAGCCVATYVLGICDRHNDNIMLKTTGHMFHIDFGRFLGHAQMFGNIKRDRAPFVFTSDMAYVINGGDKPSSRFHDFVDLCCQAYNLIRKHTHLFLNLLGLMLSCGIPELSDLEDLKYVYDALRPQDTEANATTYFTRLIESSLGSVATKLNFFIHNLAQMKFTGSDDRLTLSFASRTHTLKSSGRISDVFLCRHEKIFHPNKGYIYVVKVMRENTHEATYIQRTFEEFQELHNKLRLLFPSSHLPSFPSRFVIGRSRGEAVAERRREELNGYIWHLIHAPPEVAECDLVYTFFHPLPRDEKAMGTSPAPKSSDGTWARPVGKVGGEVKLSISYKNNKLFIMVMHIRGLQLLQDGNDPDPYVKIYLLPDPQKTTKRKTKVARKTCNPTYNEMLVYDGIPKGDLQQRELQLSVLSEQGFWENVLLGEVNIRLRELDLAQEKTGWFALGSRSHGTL

PI4KIIIα = PI4KIIIα (Homo sapiens, UniProt P42356); details: unit inferred; read-out: Specificity for PI4KIIIα (IC50 determined in vitro); cited from earlier work
PI4P5KIα [1] = details: second PI4P5KIα line; unit inferred; read-out: Specificity for PI4P5KIα (IC50 determined in vitro); cited from earlier work
p110γ = p110γ (Homo sapiens, UniProt P48736); details: unit inferred; read-out: Specificity for p110γ (IC50 determined in vitro); cited from earlier work
p110δ = p110δ (Homo sapiens, UniProt O00329); details: unit inferred; read-out: Specificity for p110δ (IC50 determined in vitro); cited from earlier work
DNA-PK = DNA-PK (Homo sapiens, UniProt P78527); details: unit inferred; read-out: Specificity for DNA-PK (IC50 determined in vitro); cited from earlier work
ATR = ATR (Homo sapiens, UniProt Q13535); details: unit inferred; read-out: Specificity for ATR (IC50 determined in vitro); cited from earlier work
ATM = ATM (Homo sapiens, UniProt Q13315); details: unit inferred; read-out: Specificity for ATM (IC50 determined in vitro); cited from earlier work
Sequence of ATM (Q13315 whole entry, species assumed): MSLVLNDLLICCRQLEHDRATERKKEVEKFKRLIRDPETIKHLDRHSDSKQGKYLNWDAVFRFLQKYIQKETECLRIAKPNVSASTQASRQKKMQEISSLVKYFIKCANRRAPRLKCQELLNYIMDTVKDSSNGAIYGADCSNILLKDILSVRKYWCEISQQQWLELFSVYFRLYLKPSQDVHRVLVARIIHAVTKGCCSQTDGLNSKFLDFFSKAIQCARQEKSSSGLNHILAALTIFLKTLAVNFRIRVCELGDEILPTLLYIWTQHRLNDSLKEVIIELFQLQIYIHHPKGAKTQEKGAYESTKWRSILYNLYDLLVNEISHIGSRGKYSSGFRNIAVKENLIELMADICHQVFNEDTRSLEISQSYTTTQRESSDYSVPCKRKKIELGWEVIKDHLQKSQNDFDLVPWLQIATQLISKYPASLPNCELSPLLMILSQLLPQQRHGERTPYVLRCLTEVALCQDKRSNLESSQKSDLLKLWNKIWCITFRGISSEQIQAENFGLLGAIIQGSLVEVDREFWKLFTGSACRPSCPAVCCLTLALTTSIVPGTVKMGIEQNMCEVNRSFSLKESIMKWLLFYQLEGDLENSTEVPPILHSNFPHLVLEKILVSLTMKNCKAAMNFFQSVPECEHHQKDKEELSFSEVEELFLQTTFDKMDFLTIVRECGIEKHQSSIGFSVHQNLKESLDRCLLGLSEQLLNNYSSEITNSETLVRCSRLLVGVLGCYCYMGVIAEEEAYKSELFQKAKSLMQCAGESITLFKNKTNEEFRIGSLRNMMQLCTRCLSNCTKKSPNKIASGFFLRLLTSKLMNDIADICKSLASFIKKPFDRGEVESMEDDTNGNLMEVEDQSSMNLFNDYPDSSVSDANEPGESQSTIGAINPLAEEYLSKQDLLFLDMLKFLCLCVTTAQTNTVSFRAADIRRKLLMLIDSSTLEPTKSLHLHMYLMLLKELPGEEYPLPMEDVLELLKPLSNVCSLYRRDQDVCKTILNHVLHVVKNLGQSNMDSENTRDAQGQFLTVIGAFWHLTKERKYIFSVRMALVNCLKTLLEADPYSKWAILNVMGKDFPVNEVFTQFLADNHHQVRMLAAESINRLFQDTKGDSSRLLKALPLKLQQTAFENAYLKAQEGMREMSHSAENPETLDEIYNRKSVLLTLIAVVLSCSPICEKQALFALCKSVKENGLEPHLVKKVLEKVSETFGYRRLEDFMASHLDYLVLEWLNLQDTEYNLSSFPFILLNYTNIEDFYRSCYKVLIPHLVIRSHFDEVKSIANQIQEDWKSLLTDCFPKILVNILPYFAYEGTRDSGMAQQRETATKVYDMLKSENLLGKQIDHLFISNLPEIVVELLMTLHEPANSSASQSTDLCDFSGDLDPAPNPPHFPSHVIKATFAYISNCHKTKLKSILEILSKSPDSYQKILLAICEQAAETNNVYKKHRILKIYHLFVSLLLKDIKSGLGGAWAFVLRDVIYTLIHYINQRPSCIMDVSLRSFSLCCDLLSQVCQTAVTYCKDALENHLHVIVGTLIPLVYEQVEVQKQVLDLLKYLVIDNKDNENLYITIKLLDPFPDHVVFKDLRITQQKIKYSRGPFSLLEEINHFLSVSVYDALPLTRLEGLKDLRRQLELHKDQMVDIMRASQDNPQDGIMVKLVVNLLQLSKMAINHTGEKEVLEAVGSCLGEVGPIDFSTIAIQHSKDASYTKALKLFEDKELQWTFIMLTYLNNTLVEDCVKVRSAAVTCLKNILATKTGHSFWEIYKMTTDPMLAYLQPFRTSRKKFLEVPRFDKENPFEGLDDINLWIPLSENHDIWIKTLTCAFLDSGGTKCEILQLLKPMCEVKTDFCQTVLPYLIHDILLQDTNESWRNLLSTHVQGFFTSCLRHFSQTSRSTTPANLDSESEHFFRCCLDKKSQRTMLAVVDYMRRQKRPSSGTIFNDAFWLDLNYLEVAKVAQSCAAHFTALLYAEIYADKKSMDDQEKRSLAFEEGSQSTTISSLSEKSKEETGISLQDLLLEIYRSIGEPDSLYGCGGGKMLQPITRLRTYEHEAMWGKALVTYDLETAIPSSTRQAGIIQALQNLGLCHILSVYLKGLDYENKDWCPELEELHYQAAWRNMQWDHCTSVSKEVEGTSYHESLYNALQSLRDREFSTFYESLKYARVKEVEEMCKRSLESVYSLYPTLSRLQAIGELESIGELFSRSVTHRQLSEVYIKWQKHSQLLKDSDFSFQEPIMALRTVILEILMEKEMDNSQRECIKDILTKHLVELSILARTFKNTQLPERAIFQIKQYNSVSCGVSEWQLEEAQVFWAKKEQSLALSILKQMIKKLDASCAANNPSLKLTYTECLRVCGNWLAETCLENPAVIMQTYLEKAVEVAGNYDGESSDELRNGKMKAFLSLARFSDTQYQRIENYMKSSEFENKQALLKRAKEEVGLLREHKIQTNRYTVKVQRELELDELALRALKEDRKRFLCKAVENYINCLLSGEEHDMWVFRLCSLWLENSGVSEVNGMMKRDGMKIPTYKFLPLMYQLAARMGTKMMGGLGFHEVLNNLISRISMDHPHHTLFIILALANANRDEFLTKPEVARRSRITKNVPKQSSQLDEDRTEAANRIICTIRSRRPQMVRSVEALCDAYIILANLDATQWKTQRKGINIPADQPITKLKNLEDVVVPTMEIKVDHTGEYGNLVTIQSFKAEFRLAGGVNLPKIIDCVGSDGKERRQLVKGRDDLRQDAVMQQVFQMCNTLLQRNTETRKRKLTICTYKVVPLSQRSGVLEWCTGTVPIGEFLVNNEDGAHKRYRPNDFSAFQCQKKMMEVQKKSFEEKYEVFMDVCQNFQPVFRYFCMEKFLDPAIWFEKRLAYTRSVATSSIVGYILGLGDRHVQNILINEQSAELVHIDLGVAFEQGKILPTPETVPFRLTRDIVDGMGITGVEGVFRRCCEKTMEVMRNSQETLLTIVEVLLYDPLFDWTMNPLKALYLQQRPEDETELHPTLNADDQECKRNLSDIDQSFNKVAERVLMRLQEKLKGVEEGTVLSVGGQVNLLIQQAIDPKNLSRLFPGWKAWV

mTORC1 = mTORC1 (Homo sapiens, UniProt P42345); details: unit inferred; read-out: Specificity for mTORC1 (IC50 determined in vitro); cited from earlier work
PI4KIIα = PI4KIIα (Homo sapiens, UniProt Q9BTU6); details: unit inferred; read-out: Specificity for PI4KIIα (IC50 determined in vitro); cited from earlier work
Sequence of PI4KIIα (Q9BTU6 whole entry): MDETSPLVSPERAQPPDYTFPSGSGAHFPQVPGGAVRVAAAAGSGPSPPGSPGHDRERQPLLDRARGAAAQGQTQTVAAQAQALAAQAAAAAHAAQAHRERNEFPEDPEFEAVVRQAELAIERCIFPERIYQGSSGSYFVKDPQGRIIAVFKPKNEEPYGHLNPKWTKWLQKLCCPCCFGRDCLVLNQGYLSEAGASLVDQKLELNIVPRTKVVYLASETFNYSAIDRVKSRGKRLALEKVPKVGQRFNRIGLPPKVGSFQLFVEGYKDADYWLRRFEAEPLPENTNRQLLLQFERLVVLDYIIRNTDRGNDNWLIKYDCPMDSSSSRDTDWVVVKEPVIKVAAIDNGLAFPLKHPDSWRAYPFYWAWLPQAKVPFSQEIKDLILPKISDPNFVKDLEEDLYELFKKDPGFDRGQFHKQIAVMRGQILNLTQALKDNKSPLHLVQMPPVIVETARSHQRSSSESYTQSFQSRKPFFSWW

PI5P4KIIβ = target: T1, PI5P4KIIβ (Homo sapiens, UniProt P78356); details: unit inferred; read-out: Specificity for PI5P4KIIβ (IC50 determined in vitro); cited from earlier work
T1 sequence (P78356 1-416): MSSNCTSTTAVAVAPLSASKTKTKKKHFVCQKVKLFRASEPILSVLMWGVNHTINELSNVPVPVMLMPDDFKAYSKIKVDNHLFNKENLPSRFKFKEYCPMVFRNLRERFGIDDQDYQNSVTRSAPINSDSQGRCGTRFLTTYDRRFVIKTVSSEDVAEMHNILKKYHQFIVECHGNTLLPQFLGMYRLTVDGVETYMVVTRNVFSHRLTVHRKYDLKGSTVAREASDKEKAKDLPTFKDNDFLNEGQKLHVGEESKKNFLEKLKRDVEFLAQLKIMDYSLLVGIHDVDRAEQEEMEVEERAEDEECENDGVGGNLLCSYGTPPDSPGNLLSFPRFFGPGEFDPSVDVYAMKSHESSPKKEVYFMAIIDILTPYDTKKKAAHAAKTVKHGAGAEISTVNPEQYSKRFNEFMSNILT

mTORC2 = mTORC2 (Homo sapiens, UniProt P42345); details: unit inferred; read-out: Specificity for mTORC2 (IC50 determined in vitro); cited from earlier work
p110α = p110α (Homo sapiens, UniProt P42336); details: unit inferred; read-out: Specificity for p110α (IC50 determined in vitro); cited from earlier work
PI4P5KIα [2] = target: PI4P5KIα (Homo sapiens, UniProt Q99755); details: first PI4P5KIα line; unit inferred; read-out: Specificity for PI4P5KIα (IC50 determined in vitro); cited from earlier work
PI3KC2γ = PI3KC2γ (Homo sapiens, UniProt O75747); details: unit inferred; read-out: Specificity for PI3KC2γ (IC50 determined in vitro); cited from earlier work
PI3KC2α = PI3KC2α (Homo sapiens, UniProt O00443); details: unit inferred; read-out: Specificity for PI3KC2α (IC50 determined in vitro); cited from earlier work
hsVPS34 = hsVPS34 (Homo sapiens, UniProt Q8NEB9); details: unit inferred; read-out: Specificity for hsVPS34 (IC50 determined in vitro); cited from earlier work
PI4KIIIβ = PI4KIIIβ (Homo sapiens, UniProt Q9UBF8); details: unit inferred; read-out: Specificity for PI4KIIIβ (IC50 determined in vitro); cited from earlier work
[3] = tested on: naive CD62LhiCD4+CD25− LN T cells; assay: Foxp3 induction in newly activated naive CD4 T cells (intracellular staining); format: cell-based, mouse
Description: Mouse strains, cell sorting and culture Animal work was carried out according the Animals (Scientific Procedures) Act, UK. Lymph node (LN) cells were stained, analysed and sorted by flow cytometry as described (Cobb et al 2005 J. Exp. Med. 201: 1367-1373). Intracellular staining for Foxp3 protein was done as advised by the manufacturers (eBiosciences.com). The phosphorylation syatus of S6 ribosomal protein was determined using anti pS6 Ser235/236 (Cellsignaling cat.no. 2211, http://www.cellsignal.com) using the eBioscience Foxp3 staining kit and anti rabbit IgG-FITC or IgG-Cy5 (Jackson Immunoresearch). For induction of Foxp3 expression, sorted LN CD4+ CD25− CD62Lhi T cells were cultured at 1-3×10^6/ml with plate bound anti-TCRβ. […] After 18 hours the cells were either left in place for continued TCR stimulation or moved to uncoated wells with the indicated additives. To assess regulatory function, CD4 T cells cultured as indicated were titrated into round bottom wells containing either 1×10^5 CFSE labeled total LN cells or 5×10^4 CFSE labeled CD4^+ CD25^− T cells and 1×10^5 mitomycin-C treated (25 μg/ml, 20 min, 37° C.) T cell depleted splenocytes with the indicated concentrations of anti CD3 (2C11, Pharmingen). CD4 T cell CFSE profiles were recorded between 48 and 72 hours later.
Mice, Cell Sorting and Culture. Animal work was carried out according to the Animals (Scientific Procedures) Act, UK. Lymph node (LN) cells or thymocytes from wild type were stained, analysed and sorted by flow cytometry as described (Thompson et al., 2007 Immunity VoI 26 pp 335-344) from wild type (C57BL/6, BALB/c or C57BL/6×129) mice or from Rag1 deficient H2^b AND TCR transgenic mice. Antigen presenting cells were derived from bone marrow in the presence of GM-CSF and incubated with antigenic peptide. Intracellular staining for Foxp3 protein was done as advised by the manufacturers (eBiosciences.com). The phosphorylation status of S6 ribosomal protein was determined using anti pS6 Ser235/236 (Cell Signaling cat.no. 2211, http://www.cellsignal.com) using the eBioscience Foxp3 staining kit and anti rabbit IgG-FITC or IgG-Cy5 (Jackson ImmunoResearch). […] After 18 hours the cells were either left in place for continued TCR stimulation or moved to uncoated wells with the indicated additives. To assess regulatory function, CD4 T cells cultured as indicated were titrated into round bottom wells containing either 1×10^5 CFSE labeled total LN cells or 5×10^4 CFSE labeled CD4^+CD25^− T cells and 1×10^5 mitomycin-C treated (25 μg/ml, 20 min, 37° C.) T cell depleted splenocytes with the indicated concentrations of anti CD3 (2C11, Pharmingen). CD4 T cell CFSE profiles were recorded between 48 and 72 hours later.

Cc1ccccc1Oc1cccc2c(=O)cc(N3CCOCC3)[nH]c12 [TGX115]
IC50 (p110β): 0.13 µM
IC50 (PI3KC2β): 50 µM
IC50 (PI4KIIIα): > 100 µM
IC50 (PI4P5KIα [1]): > 100 µM
IC50 (p110γ): 100 µM
IC50 (p110δ): 0.63 µM
IC50 (DNA-PK): 1.2 µM
IC50 (ATR): > 100 µM
IC50 (ATM): 20 µM
IC50 (mTORC1): > 100 µM
IC50 (PI4KIIα): > 100 µM
IC50 (PI5P4KIIβ): > 100 µM
IC50 (mTORC2): > 100 µM
IC50 (p110α): 61 µM
IC50 (PI4P5KIα [2]): > 100 µM
IC50 (PI3KC2γ): 100 µM
IC50 (PI3KC2α): > 100 µM
IC50 (hsVPS34): 5.2 µM
IC50 (PI4KIIIβ): > 100 µM
effect on Foxp3 expression at 0.1 μM ([3]; 0.1 μM): did not affect Foxp3 expression
effect on Foxp3 expression at 10 μM [3]: slight impact on Foxp3 expression
effect on Foxp3 expression at 10 μM ([3]; listed as TGX-115): very little effect
